Laboratory results reported in the NIST ThermoML archive (doi:10.1021/je400029t).
Numbers after ± are expanded uncertainties.

Tests used:
[1] = Crystal; DTA
[2] = Molar enthalpy of transition or fusion; settings: Crystal; DSC

SMILES: COc1ccc(C(=O)O)cc1OC [3,4-dimethoxybenzoic acid]
- Normal melting temperature [1]: 179.97 ± 0.53 °C
- Molar enthalpy of transition or fusion [2]: 7.07 ± 0.311 kcal/mol
